From patent US7109193B2, “Tricyclic diazepines tocolytic oxytocin receptor antagonists” (Wyeth, priority 2001, dated 2006)

Target: T1, human vasopressin V2 receptor subtype (Homo sapiens, UniProt P30518)
T1 construct: host or cells: CHO cells (pZeoSV vector)
Test: Vasopressin binding in Chinese Hamster Ovary cell membranes expressing human vasopressin V2 subtype receptors
Conditions: CHO cell membranes, [3H]arginine vasopressin; for inhibition at 0.1 µM: 100 nM, values without parentheses; for IC50: values in parentheses
Method in brief: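 Radioligand displacement on membranes from CHO cells stably expressing human V2 receptor, 25 to 50 μg protein/well, in 50 mM Tris-HCl pH 7.4 with MgCl2, BSA and protease inhibitors. [^3H]arginine vasopressin (8 nM working solution) incubated 60 min at room temperature; bound label measured by filtration and scintillation counting.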

T1 sequence (P30518 whole entry): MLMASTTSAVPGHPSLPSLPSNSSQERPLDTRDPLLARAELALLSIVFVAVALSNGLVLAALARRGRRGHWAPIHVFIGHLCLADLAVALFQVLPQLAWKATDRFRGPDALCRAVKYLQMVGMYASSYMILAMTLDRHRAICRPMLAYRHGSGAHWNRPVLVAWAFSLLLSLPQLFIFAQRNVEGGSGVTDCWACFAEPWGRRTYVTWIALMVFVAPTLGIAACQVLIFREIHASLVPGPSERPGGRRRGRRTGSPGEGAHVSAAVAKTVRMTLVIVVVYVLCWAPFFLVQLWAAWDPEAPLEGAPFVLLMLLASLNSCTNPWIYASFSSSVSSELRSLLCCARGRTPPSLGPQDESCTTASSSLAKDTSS

| Structure (SMILES) | inhibition at 0.1 µM [%] | IC50 [µM] |
| --- | --- | --- |
| COc1cc(C(=O)N2Cc3ccc(C(=O)NCCCN(C)C)n3Cc3ccccc32)ccc1-c1cccc2ccccc12 [Example 80, N-[3-(Dimethylamino)propyl]-10-[3-methoxy-4-(1-naphthyl)benzoyl]-10,11-dihydro-5H-pyrrolo[2,1-c][1,4]benzodiazepine-3-carboxamide] | 43 |  |
| COc1cccc(-c2ccc(C(=O)N3Cc4ccc(C(=O)N(C)CCN(C)C)n4Cc4ccccc43)cc2C)c1 [Example 89, N-[2-(Dimethylamino)ethyl]-10-[(3′-methoxy-2-methyl[1,1′-biphenyl]-4-yl)carbonyl]-N-methyl-10,11-dihydro-5H-pyrrolo[2,1-c][1,4]benzodiazepine-3-carboxamide] | 13 |  |
| COc1ccccc1-c1ccc(C(=O)N2Cc3ccc(C(=O)N4CCCN(C)CC4)n3Cc3ccccc32)cc1 [Example 61, {10-[(2′-Methoxy[1,1′-biphenyl]-4-yl)carbonyl]-10,11-dihydro-5H-pyrrolo[2,1-c][1,4]benzodiazepin-3-yl}(4-methyl-1,4-diazepan-1-yl)methanone] |  | 0.745 |
| Cc1cc(C(=O)N2Cc3ccc(C(=O)N(C)CCCN(C)C)n3Cc3ccccc32)ccc1-c1ccccc1C(F)(F)F [Example 97, N-[3-(Dimethylamino)propyl]-N-methyl-10-{[2-methyl-2′-(trifluoromethyl)[1,1′-biphenyl]-4-yl]carbonyl}-10,11-dihydro-5H-pyrrolo[2,1-c][1,4]benzodiazepine-3-carboxamide] |  | 2 |
| COc1ccccc1-c1ccc(C(=O)N2Cc3ccc(C(=O)N(C)CCCN(C)C)n3Cc3ccccc32)cc1C [Example 100, N-[3-(Dimethylamino)propyl]-10-[(2′-methoxy-2-methyl[1,1′-biphenyl]-4-yl)carbonyl]-N-methyl-10,11-dihydro-5H-pyrrolo[2,1-c][1,4]benzodiazepine-3-carboxamide] | 26 |  |
| COc1cccc(-c2ccc(C(=O)N3Cc4ccc(C(=O)NCCCN(C)C)n4Cc4ccccc43)cc2OC)c1 [Example 82, 10-[(2,3′-Dimethoxy[1,1′-biphenyl]-4-yl)carbonyl]-N-[3-(dimethylamino)propyl]-10,11-dihydro-5H-pyrrolo[2,1-c][1,4]benzodiazepine-3-carboxamide] | 10 |  |
| Cc1ccccc1-c1ccc(C(=O)N2Cc3ccc(C(=O)N(C)CCCN(C)C)n3Cc3ccccc32)cc1C [Example 101, N-[3-(Dimethylamino)propyl]-10-[(2,2′-dimethyl[1,1′-biphenyl]-4-yl)carbonyl]-N-methyl-10,11-dihydro-5H-pyrrolo[2,1-c][1,4]benzodiazepine-3-carboxamide] | 7 |  |
| COc1cccc(-c2cc(OC)c(C(=O)N3Cc4ccc(C(=O)N(C)CCN(C)C)n4Cc4ccccc43)cc2Cl)c1 [Example 87, 10-[(6-Chloro-3,3′-dimethoxy[1,1′-biphenyl]-4-yl)carbonyl]-N-[2-(dimethylamino)ethyl]-N-methyl-10,11-dihydro-5H-pyrrolo[2,1-c][1,4]benzodiazepine-3-carboxamide] |  | 2.18 |
| COc1ccccc1-c1ccc(C(=O)N2Cc3ccc(C(=O)N(C)CCN(C)C)n3Cc3ccccc32)cc1 [Example 90, N-[2-(Dimethylamino)ethyl]-10-[(2′-methoxy[1,1′-biphenyl]-4-yl)carbonyl]-N-methyl-10,11-dihydro-5H-pyrrolo[2,1-c][1,4]benzodiazepine-3-carboxamide] | 19 |  |
| Cc1cc(C(=O)N2Cc3ccc(C(=O)N4CCN(CCCN(C)C)CC4)n3Cc3ccccc32)ccc1-c1ccccc1C(F)(F)F [Example 4, [4-(3-Dimethylaminopropyl)-piperazin-1-yl]-[10-(2-methyl-2′-trifluoromethyl-[1,1′-biphenyl]-4-yl)carbonyl]-[10,11-dihydro-5H-pyrrolo[2,1-c][1,4]benzodiazepin-3-yl]-methanone] | 24 |  |
| COc1cc(C(=O)N2Cc3ccc(C(=O)N4CCC[C@H]4CN4CCCC4)n3Cc3ccccc32)ccc1-c1ccccc1C(F)(F)F [Example 20, {[10-(2-Methoxy)-2′-trifluoromethyl-[1,1′-biphenyl]-4-yl]carbonyl}-[(2S)-[(2-pyrrolidin-1-yl)methyl]pyrrolidin-1-yl]-10,11-dihydro-5H-pyrrolo[2,1-c][1,4]benzodiazepin-3-yl-methanone] |  | 4.36 |
| COc1cccc(-c2cc(OC)c(C(=O)N3Cc4ccc(C(=O)NCCCN(C)C)n4Cc4ccccc43)cc2Cl)c1 [Example 79, 10-[(6-Chloro-3,3′-dimethoxy[1,1′-biphenyl]-4-yl)carbonyl]-N-[3-(dimethylamino)propyl]-10,11-dihydro-5H-pyrrolo[2,1-c][1,4]benzodiazepine-3-carboxamide] | 7 |  |
| COc1cc(-c2ccccc2C)ccc1C(=O)N1Cc2ccc(C(=O)N(C)CCCN(C)C)n2Cc2ccccc21 [Example 11, N-Methyl-N-[3-(dimethylamino)propyl]-10-[(3-methoxy-2′-methyl[1,1′-biphenyl]-4-yl)carbonyl]-10,11-dihydro-5H-pyrrolo[2,1-c][1,4]benzodiazepine-3-carboxamide] |  | 1.35 |

Second part, the compound after the results:

| inhibition at 0.1 µM [%] | IC50 [µM] | Structure (SMILES) |
| --- | --- | --- |
|  | 0.497 | COc1cc(-c2ccccc2C)c(Cl)cc1C(=O)N1Cc2ccc(C(=O)N3CCN(CCN(C)C)CC3)n2Cc2ccccc21 [Example 197, {10-[(6-Chloro-3-methoxy-2′-methyl[1,1′-biphenyl]-4-yl)carbonyl]-10,11-dihydro-5H-pyrrolo[2,1-c][1,4]benzodiazepin-3-yl}{4-[2-(dimethylamino)ethyl]-1-piperazinyl}methanone] |
|  | 1.68 | COc1cccc(-c2ccc(C(=O)N3Cc4ccc(C(=O)N5CC[C@@H](N(C)C)C5)n4Cc4ccccc43)cc2C)c1 [Example 278, [(3R)-3-(Dimethylamino)pyrrolidinyl]{10-[(3′-methoxy-2-methyl[1,1′-biphenyl]-4-yl)carbonyl]-10,11-dihydro-5H-pyrrolo[2,1-c][1,4]benzodiazepin-3-yl}methanone] |
|  | 1.92 | Cc1cc(C(=O)N2Cc3ccc(C(=O)N4CC[C@@H](N(C)C)C4)n3Cc3ccccc32)ccc1-c1ccccc1C(F)(F)F [Example 271, [(3R)-3-(Dimethylamino)pyrrolidinyl](10-{[2-methyl-2′-(trifluoromethyl)[1,1′-biphenyl]-4-yl]carbonyl}-10,11-dihydro-5H-pyrrolo[2,1-c][1,4]benzodiazepin-3-yl)methanone] |
| 18 |  | COc1cccc(-c2ccc(C(=O)N3Cc4ccc(C(=O)N(C)CCCN(C)C)n4Cc4ccccc43)cc2C)c1 [Example 102, N-[3-(Dimethylamino)propyl]-10-[(3′-methoxy-2-methyl[1,1′-biphenyl]-4-yl)carbonyl]-N-methyl-10,11-dihydro-5H-pyrrolo[2,1-c][1,4]benzodiazepine-3-carboxamide] |
| 18 |  | COc1cc(C(=O)N2Cc3ccc(C(=O)N(C)CCCN(C)C)n3Cc3ccccc32)ccc1-c1ccccc1C [Example 105, N-[3-(Dimethylamino)propyl]-10-[(2-methoxy-2′-methyl[1,1′-biphenyl]-4-yl)carbonyl]-N-methyl-10,11-dihydro-5H-pyrrolo[2,1-c][1,4]benzodiazepine-3-carboxamide] |
|  | 0.772 | COc1ccccc1-c1ccc(C(=O)N2Cc3ccc(C(=O)N4CCC(N5CCCCC5)CC4)n3Cc3ccccc32)cc1 [Example 111, {10-[(2′-Methoxy[1,1′-biphenyl]-4-yl)carbonyl]-10,11-dihydro-5H-pyrrolo[2,1-c][1,4]benzodiazepin-3-yl}[4-(1-piperidinyl)-1-piperidinyl]methanone] |
|  | 0.19 | COc1ccccc1-c1ccc(C(=O)N2Cc3ccc(C(=O)N4CCN(CCN5CCOCC5)CC4)n3Cc3ccccc32)cc1C [Example 206, {10-[(2′-Methoxy-2-methyl[1,1′-biphenyl]-4-yl)carbonyl]-10,11-dihydro-5H-pyrrolo[2,1-c][1,4]benzodiazepin-3-yl}{4-[2-(4-morpholinyl)ethyl]-1-piperazinyl}methanone] |
|  | 0.833 | C=CCN1CCN(C(=O)c2ccc3n2Cc2ccccc2N(C(=O)c2ccc(-c4ccccc4OC)cc2)C3)CC1 [Example 221, (4-Allyl-1-piperazinyl){10-[(2′-methoxy[1,1′-biphenyl]4-yl)carbonyl]-10,11-dihydro-5H -pyrrolo[2,1-c][1,4]benzodiazepin-3-yl}methanone] |
